Target: T1, 5-HT2B (h) (Homo sapiens, UniProt P41595)
T1 construct: expressed in transfected cells; host or cells: CHO cells
Test: 5-HT2B (h) agonist radioligand [125I](±)DOI binding
Conditions: at 10 μM
Procedure: Samples were then analyzed as described above.

T1 sequence (P41595 whole entry): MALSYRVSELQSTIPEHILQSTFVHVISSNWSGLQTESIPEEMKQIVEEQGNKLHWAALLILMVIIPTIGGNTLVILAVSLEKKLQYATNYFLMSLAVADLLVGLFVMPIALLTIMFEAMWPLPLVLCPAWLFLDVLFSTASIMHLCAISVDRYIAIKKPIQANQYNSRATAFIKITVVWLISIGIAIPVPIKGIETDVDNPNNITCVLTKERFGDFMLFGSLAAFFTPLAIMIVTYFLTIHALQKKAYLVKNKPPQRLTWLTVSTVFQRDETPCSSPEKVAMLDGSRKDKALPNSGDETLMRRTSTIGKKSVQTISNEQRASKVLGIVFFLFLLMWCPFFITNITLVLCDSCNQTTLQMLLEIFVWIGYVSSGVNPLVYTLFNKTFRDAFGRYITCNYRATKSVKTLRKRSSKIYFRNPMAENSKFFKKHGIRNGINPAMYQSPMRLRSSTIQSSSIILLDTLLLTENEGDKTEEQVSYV

Question: For `NCCc1ccc2c(c1)OCS2` [II-14, 2-(benzo[d][1,3]oxathiol-6-yl)ethan-1-amine], which “Binding 5-HT2B (agonist radioligand), % competition” value is on record?
Answer: The value was 100.3% competition.

Source: patent publication US20250145566A1, “PHENETHYLAMINE DERIVATIVES, COMPOSITIONS, AND METHODS OF USE” (Cybin IRL Limited, priority 2022, published 2025)
